Test results: US8937068B2, “Pyridopyrazine derivatives and their use” (Zentaris GmbH, priority 2005, dated 2015)
Values belong to the molecule of their own block, whether it stands above or below them.

Assays:
PI3Kalpha = PI3Kalpha (Homo sapiens (Human), UniProt P42336); assay: Cell-free kinase assay (ALPHA technology), PI3Kalpha; format: biochemical; settings: 100 μM ATP
Experimental: (§1) The inhibitory effect of the compounds according to the invention was tested on various serine/threonine, tyrosine and lipid kinases in enzymatic assays. Recombinant human kinases such as, for example, Erk2, PI3Kalpha, -beta, -gamma, -delta, p38alpha, p38gamma, Jnk1, Jnk2 and others were used in this case, partly as full-length kinases, partly as shortened fragments, but at least consisting of the functional kinase domains. The commercial kinase proteins (Proqinase, Upstate) were used as recombinant fusion proteins with GST (glutathion-S-transferase) or His-Tag. Depending on the type of substrate, the various kinase reactions were quantified by means of suitable ALPHA™ beads (Perkin-Elmer).
(§2) The substance testing is described in detail hereinafter for the Erk assay.
(§3) a) MAPK-ALPHAs (e.g. Erk2): the test substance, 0.625 ng Erk2 (#14-173, Upstate), 10 μM ATP and 15 nM biotinylated MBP (myelin basic protein) substrate were incubated on a 384-well Optiplate (Perkin-Elmer) in a volume of 15 μl for 1 h in 25 mM Tris, 10 mM MgCl2, 0.1% Tween-20, 100 μM NaVO4, 2 mM DTT at pH 7.5. The kinase reaction was then stopped by adding 10 μl of the ALPHA bead mixes (10 μg/ml, #6760617/Perkin-Elmer) pre-incubated with anti-phospho MBP antibody (320 pM, #05-429/Upstate) in 25 mM Tris, 200 mM NaCl, 110 nM EDTA and 0.3% BSA and left to stand overnight. b) PI3K-ALPHAs (e.g. PI3Kalpha): the test substance, 1 ng PI3Kalpha (#14-602, Upstate), 100 μM ATP and 20 μM PIP2 substrate (#P4508, Echelon) were incubated on a 384-well Optiplate (Perkin-Elmer) for 1 h in 50 mM Hepes, 50 mM NaCl, 5 mM MgCl2, 0.05% Chaps, 5 mM DTT at pH 7.4. The kinase reaction was then stopped by adding ALPHA bead mixes (10 μg/ml, #6760603/Perkin-Elmer) pre-incubated with 1 nM GST:Grp1 fusion protein (Upstate) and 15 nM biotinylated PIP3 (#C-39B6/Echelon) in 50 mM Hepes, 50 mM NaCl, 50 mM EDTA and 0.1% BSA and left to stand overnight.
(§4) The fluorescence was detected the following morning in a Fusion™^aα-system (Perkin-Elmer).
(§5) The %-inhibition values per substance concentration were calculated by means of the following formula from the raw data determined in the Fusion™ ? :
(§6) Eight determinations were made for each control and two for the substance samples. The 0% control either contains no ATP or no substrate, the 100% control (fully active kinase) contains no test substance. The IC50 values were determined using GraphPadPrism.

Jnk1 + Jnk2 = assay: Cell-free kinase assay (ALPHA technology), Jnk1 + Jnk2; format: biochemical, human; settings: 10 μM ATP
Experimental: as §1, §2, §3, §4, §5, §6

p38alpha = p38alpha (Homo sapiens (Human), UniProt Q16539); assay: Cell-free kinase assay (ALPHA technology), p38alpha; format: biochemical; settings: 10 μM ATP
Experimental: as §1, §2, §3, §4, §5, §6

Hct116 = assay: XTT assay, anti-proliferative effect, Hct116; format: cell-based; settings: 45 h incubation
Experimental: (§7) The principle of this test is based on the intracellular reduction of the tetrazolium dye XTT (sodium 3′-[1-(phenylaminocarbonyl)-3,4-tetrazolium]-bis(4-methoxy-6-nitro)benzene sulfonic acid, Sigma) to a formazan dye by mitochondrial dehydrogenases. The dye is only formed by metabolically active cells and its photometrically measurable intensity is a quantitative indicator for the presence of living cells. The reduction of dye formation by incubation of the cells with substances serves as a parameter for the anti-proliferative effect.
(§8) The tumour cell lines (ATCC) were injected into 96-well microtitre plates in a defined cell number (5000 cells/well for BxPC3 and Hct116; 10000 cells/well for MDA MB468) and then incubated overnight in an incubator at 37° C., 5% CO2 and 95% air humidity. The test substances were prepared as stock solutions (10 mM) in DMSO. […] The cell plates were then incubated for 45 h in an incubator at 37° C., 5% CO2 and 95% air humidity.
(§9) For the detection reaction the substrate XTT was mixed with PMS (N-Methyl dibenzopyrazine methylsulfate, Sigma) and added to the cells so that a final concentration of 325 μg XTT/ml and 2.5 μg PMS/ml was obtained. It was then incubated for 3 h at 37° C., 95% air humidity. The formazan salt formed by the cellular dehydrogenases could then be quantified by adsorption at 490 nm.
(§10) The % inhibition value was evaluated by means of the following formula from the values for the optical densities measured in each case at 490 nm:
(§11) Eight determinations were made for each control and two for the substance samples. The 0% control contains no cells, the 100% control (proliferation control) contains no test substance. The EC50 values were determined using GraphPadPrism.

Erk2 = Erk2 (Homo sapiens, UniProt P28482); assay: Cell-free kinase assay (ALPHA technology), Erk2; format: biochemical; settings: 10 μM ATP
Experimental: The inhibitory effect of the compounds according to the invention was tested on various serine/threonine, tyrosine and lipid kinases in enzymatic assays. […] The commercial kinase proteins (Proqinase, Upstate) were used as recombinant fusion proteins with GST (glutathion-S-transferase) or His-Tag. Depending on the type of substrate, the various kinase reactions were quantified by means of suitable ALPHA™ beads (Perkin-Elmer). The substance testing is described in detail hereinafter for the Erk assay. […] a) MAPK-ALPHAs (e.g. […] The kinase reaction was then stopped by adding ALPHA bead mixes (10 μg/ml, #6760603/Perkin-Elmer) pre-incubated with 1 nM GST:Grp1 fusion protein (Upstate) and 15 nM biotinylated PIP3 (#C-39B6/Echelon) in 50 mM Hepes, 50 mM NaCl, 50 mM EDTA and 0.1% BSA and left to stand overnight. The fluorescence was detected the following morning in a Fusion™^aα-system (Perkin-Elmer). […] Eight determinations were made for each control and two for the substance samples. […] The IC50 values were determined using GraphPadPrism.

MDA-MB468 = assay: XTT assay, anti-proliferative effect, MDA-MB468; format: cell-based; settings: 45 h incubation
Experimental: as §7, §8, §9, §10, §11

Chain of Erk2 (P28482 2-360 limits assumed): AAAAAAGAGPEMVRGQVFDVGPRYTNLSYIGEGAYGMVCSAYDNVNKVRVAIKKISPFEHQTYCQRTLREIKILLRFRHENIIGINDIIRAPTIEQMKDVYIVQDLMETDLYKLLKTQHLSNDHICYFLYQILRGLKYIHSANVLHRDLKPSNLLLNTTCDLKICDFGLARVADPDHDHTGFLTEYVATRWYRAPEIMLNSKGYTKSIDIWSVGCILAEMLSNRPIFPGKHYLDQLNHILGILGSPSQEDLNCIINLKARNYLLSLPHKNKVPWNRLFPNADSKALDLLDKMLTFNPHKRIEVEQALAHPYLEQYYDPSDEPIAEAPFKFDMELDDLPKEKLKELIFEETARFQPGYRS
Chain of PI3Kalpha (P42336 whole entry, the tested form may be a part): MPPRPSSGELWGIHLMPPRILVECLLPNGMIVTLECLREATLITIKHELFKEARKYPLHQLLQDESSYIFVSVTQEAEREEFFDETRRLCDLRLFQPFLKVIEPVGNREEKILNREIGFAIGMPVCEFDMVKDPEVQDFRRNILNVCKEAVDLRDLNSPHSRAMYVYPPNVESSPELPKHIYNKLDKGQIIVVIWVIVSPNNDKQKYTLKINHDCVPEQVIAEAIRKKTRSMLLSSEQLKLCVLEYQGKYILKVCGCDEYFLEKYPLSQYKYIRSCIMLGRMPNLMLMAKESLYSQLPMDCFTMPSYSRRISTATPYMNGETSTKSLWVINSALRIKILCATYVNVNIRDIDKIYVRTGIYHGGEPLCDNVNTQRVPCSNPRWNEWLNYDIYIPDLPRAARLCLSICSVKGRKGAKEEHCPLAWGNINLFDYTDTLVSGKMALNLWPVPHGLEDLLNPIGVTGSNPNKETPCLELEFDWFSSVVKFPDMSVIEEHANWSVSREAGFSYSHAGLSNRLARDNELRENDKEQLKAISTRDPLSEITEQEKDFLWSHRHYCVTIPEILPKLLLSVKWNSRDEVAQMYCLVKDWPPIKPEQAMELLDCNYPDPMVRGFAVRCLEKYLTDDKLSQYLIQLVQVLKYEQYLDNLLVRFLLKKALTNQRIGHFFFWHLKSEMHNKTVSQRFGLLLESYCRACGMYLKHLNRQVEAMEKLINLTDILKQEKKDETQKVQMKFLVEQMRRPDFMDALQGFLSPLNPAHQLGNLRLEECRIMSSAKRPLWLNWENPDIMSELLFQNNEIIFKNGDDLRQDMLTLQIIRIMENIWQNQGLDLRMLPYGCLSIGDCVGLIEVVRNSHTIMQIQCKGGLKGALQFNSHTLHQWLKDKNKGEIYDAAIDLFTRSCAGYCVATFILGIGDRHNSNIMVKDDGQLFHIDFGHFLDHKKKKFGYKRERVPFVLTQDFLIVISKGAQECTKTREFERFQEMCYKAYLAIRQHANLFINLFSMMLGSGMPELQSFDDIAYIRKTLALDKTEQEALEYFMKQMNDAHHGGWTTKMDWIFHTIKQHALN
Chain of PI3Kalpha (P27986 whole entry partner, the tested form may be a part): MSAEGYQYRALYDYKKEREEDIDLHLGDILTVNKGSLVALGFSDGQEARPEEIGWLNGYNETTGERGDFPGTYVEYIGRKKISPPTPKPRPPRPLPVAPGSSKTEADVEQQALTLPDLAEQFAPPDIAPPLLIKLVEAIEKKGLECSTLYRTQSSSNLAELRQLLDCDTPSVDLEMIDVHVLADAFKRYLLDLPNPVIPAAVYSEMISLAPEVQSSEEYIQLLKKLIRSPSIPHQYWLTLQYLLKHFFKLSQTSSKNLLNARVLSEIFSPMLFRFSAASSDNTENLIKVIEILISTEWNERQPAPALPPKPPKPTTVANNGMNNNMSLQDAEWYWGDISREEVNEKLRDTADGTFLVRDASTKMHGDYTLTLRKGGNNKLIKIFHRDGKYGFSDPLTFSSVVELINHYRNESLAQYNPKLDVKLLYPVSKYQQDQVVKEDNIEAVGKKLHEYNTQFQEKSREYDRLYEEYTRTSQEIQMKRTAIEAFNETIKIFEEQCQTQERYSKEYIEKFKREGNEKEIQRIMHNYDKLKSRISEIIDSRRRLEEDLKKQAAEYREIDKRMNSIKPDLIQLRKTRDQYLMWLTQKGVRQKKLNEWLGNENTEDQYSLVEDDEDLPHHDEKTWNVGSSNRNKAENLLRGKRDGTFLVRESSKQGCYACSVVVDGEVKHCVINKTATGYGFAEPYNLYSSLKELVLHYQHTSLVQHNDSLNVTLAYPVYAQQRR
Chain of p38alpha (Q16539 whole entry): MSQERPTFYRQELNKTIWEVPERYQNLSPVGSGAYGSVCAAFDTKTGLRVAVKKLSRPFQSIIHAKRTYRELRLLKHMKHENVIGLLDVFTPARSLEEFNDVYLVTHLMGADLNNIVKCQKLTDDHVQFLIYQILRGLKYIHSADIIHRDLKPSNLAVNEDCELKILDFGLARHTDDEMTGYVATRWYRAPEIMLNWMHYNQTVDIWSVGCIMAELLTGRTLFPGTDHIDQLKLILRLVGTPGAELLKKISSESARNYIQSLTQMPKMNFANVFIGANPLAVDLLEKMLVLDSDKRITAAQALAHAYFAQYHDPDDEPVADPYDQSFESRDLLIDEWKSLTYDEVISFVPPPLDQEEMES

IC50 (PI3Kalpha): 0.9 µM
IC50 (Jnk1 + Jnk2): > 31.6 µM
melting point: 239 to 240 °C (dec.)
IC50 (p38alpha): > 31.6 µM
SMILES: C=CCNC(=S)Nc1ccc2ncc(-c3ccccc3)nc2n1 [Compound 1, 1-Allyl-3-(3-phenyl-pyrido[2,3-b]pyrazin-6-yl)-thiourea]

IC50 (PI3Kalpha): 0.458 µM
IC50 (Jnk1 + Jnk2): 2.5 µM
EC50 (Hct116): 4.4 µM
IC50 (Erk2): 0.191 µM
EC50 (MDA-MB468): > 50 µM
IC50 (p38alpha): > 100 µM
SMILES: CCNC(=O)Nc1ccc2ncc(-c3cc(Cl)c(O)c(OC)c3)nc2n1 [Compound 175]

IC50 (PI3Kalpha): 1.5 µM
IC50 (Jnk1 + Jnk2): > 31.6 µM
IC50 (Erk2): 0.076 µM
melting point: 240 °C (dec.)
IC50 (p38alpha): > 100 µM
SMILES: C=CCNC(=O)Nc1ccc2ncc(-c3ccc(O)cc3)nc2n1 [Compound 25, 1-allyl-3-[3-(4-hydroxy-phenyl)-pyrido[2,3-b]pyrazin-6-yl]-urea]

EC50 (Hct116; Homo sapiens, HCT-116): 5.5 µM
EC50 (MDA-MB468; Homo sapiens, MDA-MB-468): 8.5 µM
SMILES: CCNC(=O)Nc1ccc2ncc(Nc3cc(C)cc(C)c3)nc2n1 [Compound 191, 1-[3-(3,5-Dimethyl-phenylamino)-pyrido[2,3-b]pyrazin-6-yl]-3-ethyl-urea]

EC50 (Hct116; Homo sapiens, HCT-116): 11.8 µM
EC50 (MDA-MB468; Homo sapiens, MDA-MB-468): 17 µM
SMILES: COc1cc(-c2cnc3ccc(NC(=O)NCCCCN4CCOCC4)nc3n2)ccc1O [Compound 176, 1-[3-(4-Hydroxy-3-methoxy-phenyl)-pyrido[2,3-b]pyrazin-6-yl]-3-(4-morpholin-4-yl-butyl)-urea]

IC50 (PI3Kalpha): 2.2 µM
IC50 (Jnk1 + Jnk2): 1.5 µM
EC50 (Hct116): 2.1 µM
IC50 (Erk2): 0.212 µM
EC50 (MDA-MB468): 4.4 µM
IC50 (p38alpha): > 100 µM
SMILES: CCNC(=O)Nc1ccc2ncc(-c3ccc(O)c(OC)c3)nc2n1 [Compound 193]

melting point: 250 °C (dec.)
SMILES: S=C(NCc1ccco1)Nc1ccc2ncc(-c3ccccc3)nc2n1 [Compound 20, 1-furan-2-ylmethyl-3-(3-phenyl-pyrido[2,3-b]pyrazin-6-yl)-thiourea]

melting point: 233 to 234 °C
SMILES: S=C(Nc1ccc2ncc(-c3ccccc3)nc2n1)NC1CC1 [Compound 11, 1-cyclopropyl-3-(3-phenyl-pyrido[2,3-b]pyrazin-6-yl)-thiourea]

melting point: 158 to 160 °C
SMILES: O=C(Nc1ccc2ncc(-c3ccccc3)nc2n1)NC1CC1 [Compound 21, 1-cyclopropyl-3-(3-phenyl-pyrido[2,3-b]pyrazin-6-yl)-urea]

melting point: 270 °C
SMILES: CNC(=S)Nc1ccc2ncc(-c3ccc([N+](=O)[O-])cc3)nc2n1 [Compound 22, 1-methyl-3-[3-(4-nitro-phenyl)-pyrido[2,3-b]pyrazin-6-yl]-thiourea]

melting point: 225 to 226 °C
SMILES: Fc1ccc(NC(=S)Nc2ccc3ncc(-c4ccccc4)nc3n2)cc1 [Compound 14, 1-(4-fluoro-phenyl)-3-(3-phenyl-pyrido[2,3-b]pyrazin-6-yl)-thiourea]

melting point: 227 °C (dec.)
SMILES: CC(C)(C)NC(=S)Nc1ccc2ncc(-c3ccccc3)nc2n1 [Compound 10, 1-tert.butyl-3-(3-phenyl-pyrido[2,3-b]pyrazin-6-yl)-thiourea]

SMILES: CCNC(=O)Nc1ccc2ncc(-c3ccc(OP(=O)(O)O)c(OC)c3)nc2n1 [Compound 169, Phosphoric acid-mono-{4-[6-(3-ethyl-ureido)-pyrido-[2,3-b]pyrazin-3-yl]-2-methoxy-phenyl}-ester]
IC50 (PI3Kalpha): 3.7 µM
IC50 (Jnk1 + Jnk2): 9.5 µM
EC50 (Hct116; Homo sapiens, HCT-116): 2.8 µM
IC50 (Erk2): 2.7 µM
EC50 (MDA-MB468; Homo sapiens, MDA-MB-468): 5.7 µM
IC50 (p38alpha): > 100 µM

melting point: 223 to 224 °C
SMILES: C=CCNC(=S)Nc1ccc2ncc(-c3ccc(C(=O)OCC)cc3)nc2n1 [Compound 26, 4-[6-(3-allyl-thioureido)-pyrido[2,3-b]pyrazin-3-yl]-benzoic acid ethyl ester]

melting point: 244 °C (dec.)
SMILES: C=CCNC(=S)Nc1ccc2ncc(-c3ccc([N+](=O)[O-])cc3)nc2n1 [Compound 24, 1-allyl-3-[3-(4-nitro-phenyl)-pyrido[2,3-b]pyrazin-6-yl]-thiourea]

melting point: 160 to 161 °C (dec.)
SMILES: C=CCNC(=S)Nc1ccc2ncc(-c3ccc(O)cc3)nc2n1.Cl

melting point: 226 °C
SMILES: O=C(NCCN1CCOCC1)Nc1ccc2ncc(-c3ccccc3)nc2n1 [Compound 17, 1-(2-Morpholin-4-yl-ethyl)-3-(3-phenyl-pyrido[2,3-b]pyrazin-6-yl)-urea]

melting point: 246 to 248 °C
SMILES: CCNC(=O)Nc1ccc2nc(C)c(C)nc2n1 [Compound 37, 1-(2,3-Dimethyl-pyrido[2,3-b]pyrazin-6-yl)-3-ethyl-urea]

melting point: 242 to 243 °C (dec.)
SMILES: C=CCNC(=S)Nc1ccc2ncc(-c3ccc4ccccc4c3)nc2n1 [Compound 5, 1-allyl-3-(3-naphth-2-yl-pyrido[2,3-b]pyrazin-6-yl)-thiourea]

melting point: 236 to 237 °C
SMILES: CCNC(=O)Nc1ccc2nc(-c3ccccn3)c(-c3ccccn3)nc2n1 [Compound 36, 1-(2,3-Di-pyridin-2-yl-pyrido[2,3-b]pyrazin-6-yl)-3-ethyl-urea]
